Data as given in patent US4945090A, “Phenoxy-substituted beta-carboline derivatives, their production and their use as drugs” (Schering Aktiengesellschaft, priority 1985, dated 1990).
Values after ≈ are worked out from the molar mass of the structure shown.

Tests used:
[1] = tested on: spasms induced by pentylenetrazole (pentazol); assay: PTZ spasms antagonism (protection from pentylenetrazole-induced spasms and death); set-up: species or system mice; settings: Mus musculus, ip, 0.5 h; protects 50% of animals from spasms and death; test substance i.p. 15-30 minutes before pentazol 150 mg/kg s.c.; Litchfield and Wilcoxon; read-out: PTZ (ED50) mg/kg in vivo
Method: The compounds according to the invention especially show anxiolytic and anticonvulsive effectiveness. […] Pentazol is administered subcutaneously in an amount of 150 mg/kg as hydrochloric acid solution (pH 2-3) 15-30 minutes after the intraperitoneal application of the test substance. This amount induces clonic and tonic spasms, which lead to death in untreated animals. The number of mice which show spasms and the number of them that died 30 minutes after pentazol are recorded (PTZ spasms antagonism).
The ED50 values indicated in the table were determined according to the method of Litchfield and Wilcoxon (J. Pharmacol. exp. Ther. 96 (1949) […]) as the amount of antagonistically acting substance which protects 50% of the animals from spasms and death.

[2] = tested on: benzodiazepine receptors; assay: displacement of 3H-flunitrazepam from benzodiazepine receptors in live brain, in vivo; settings: reduction of specific flunitrazepam binding in live brain to 50% of control; normally intraperitoneal; 3H-flunitrazepam i.v. after 15 minutes, forebrain removed after another 20 minutes
[3] = biological target: benzodiazepine receptors; assay: displacement of 3H-flunitrazepam from benzodiazepine receptors in vitro (rat forebrain membranes); settings: 50% displacement of specific 3H-flunitrazepam binding (1.0 nM, 0° C.), brain membranes of rats, pH 7.1

Structure (SMILES) | ED50 [1] | ED50 (mg/kg) in vivo [2] | IC50 (ng/ml) in vitro [3]
CCc1noc(-c2ncc3[nH]c4cccc(Oc5ccccc5Cl)c4c3c2COC)n1 [5-(2-Cl-Phenoxy), CH2 OCH3, drawing 10] | 0.8 mg/kg | 11 mg/kg | 3.1 ng/mL (≈ 7.13 nM)
CCc1noc(-c2ncc3[nH]c4ccc(Oc5ccc(C(C)=O)cc5)cc4c3c2COC)n1 [6-(4-acetylphenoxy), CH2 OCH3, drawing 11, 6(4-acetylphenoxy)-4-methoxymethyl-3-(3-ethyl-1,2,4-oxadizaol-5-yl)-beta-carboline] | 0.3 mg/kg | 7.7 mg/kg | 0.45 ng/mL (≈ 1.02 nM)
COCc1c(C(=O)OC(C)C)ncc2[nH]c3cccc(Oc4ccccc4Cl)c3c12 [5-(2-Cl-Phenoxy), CH2 OCH3, COOCH(CH3)2] | 4 mg/kg | 19 mg/kg | 2.6 ng/mL (≈ 6.12 nM)
CCc1noc(-c2ncc3[nH]c4cccc(Oc5ccccc5)c4c3c2COC)n1 [5-Phenoxy, CH2 OCH3, drawing 12, 5-phenoxy-4-methoxymethyl-3-(3-ethyl-1,2,4-oxadiazol-5-yl)-beta carboline] | 0.1 mg/kg | 0.3 mg/kg | 0.6 ng/mL (≈ 1.5 nM)
COCc1c(C(=O)OC(C)C)ncc2[nH]c3ccc(Oc4ccccc4C#N)cc3c12 [6-(2-cyanophenoxy)-4-methoxymethyl-beta-carboline-3-carboxylic acid isopropyl ester] | 4 mg/kg | 3.8 mg/kg | 0.29 ng/mL (≈ 0.698 nM)
COCc1c(C(=O)OC(C)C)ncc2[nH]c3ccc(Oc4cccc(Cl)c4C#N)cc3c12 [6-(2-cyano-3-chlorophenoxy)-4-methoxymethyl-beta-carboline-3-carboxylic acid isopropyl ester] | 1 mg/kg | 3.0 mg/kg | 0.67 ng/mL (≈ 1.49 nM)
CCOC(=O)c1ncc2[nH]c3cccc(Oc4ccc(Cl)cc4Cl)c3c2c1COC [5-(2,4-dichlorophenoxy)-4-methoxymethyl-beta-carboline-3-carboxylic acid ethyl ester] | 4 mg/kg | 3.2 mg/kg | 2.9 ng/mL (≈ 6.51 nM)
CCOC(=O)c1ncc2[nH]c3cccc(Oc4ccccc4)c3c2c1COC [5-Phenoxy, CH2 OCH3, COOEt, 5-Phenoxy-4-methoxymethyl-beta-carboline-3-carboxylic acid ethyl ester] | 18 mg/kg | 0.4 mg/kg | 0.3 ng/mL (≈ 0.797 nM)
CCOC(=O)c1ncc2[nH]c3cccc(Oc4ccccc4)c3c2c1C [5-Phenoxy, CH3, COOC2 H5, 5-phenoxy-4-methyl-beta-carboline-3-carboxylic acid ethyl ester, reference compound] | > 30 mg/kg | 2.8 mg/kg | 2.0 ng/mL (≈ 5.77 nM)
CCc1noc(-c2ncc3[nH]c4ccc(Oc5ccccc5)cc4c3c2C)n1 [6-Phenoxy, CH3, drawing 14, 6-phenoxy-4-methyl-3-(3-ethyl-1,2,4-oxadiazol-5-yl)-beta carboline] | 2.4 mg/kg | 2.6 mg/kg | 3.2 ng/mL (≈ 8.64 nM)
CCc1noc(-c2ncc3[nH]c4cccc(Oc5ccccc5)c4c3c2C)n1 [5-Phenoxy, CH3, drawing 13, 5-phenoxy-4-methyl-3-(3-ethyl-1,2,4-oxadizaol-5-yl)-beta-carboline] | 2 mg/kg | 3.9 mg/kg | 4.3 ng/mL (≈ 11.6 nM)
COCc1c(C(=O)OC(C)C)ncc2[nH]c3ccc(Oc4ccccc4[N+](=O)[O-])cc3c12 [6-(2-nitrophenoxy)-4-methoxymethyl-beta-carboline-3-carboxylic acid isopropyl ester] | 13 mg/kg | 1.8 mg/kg | 0.33 ng/mL (≈ 0.758 nM)
